Patent publication US20110059910A1, “Novel aromatic fluoroglycoside derivatives, pharmaceuticals comprising said compounds and the use thereof” (SANOFI-AVENTIS, priority 2008, published 2011)

Biological target: T1, human sodium-dependent glucose transporter 2 (SGLT2, SLC5A2) (Homo sapiens, UniProt P31639)
T1 construct: Bases 21 to 2039 correspond to the complete coding region of human SGLT2; expressed in transfected cells
T1 sequence (P31639 1-672): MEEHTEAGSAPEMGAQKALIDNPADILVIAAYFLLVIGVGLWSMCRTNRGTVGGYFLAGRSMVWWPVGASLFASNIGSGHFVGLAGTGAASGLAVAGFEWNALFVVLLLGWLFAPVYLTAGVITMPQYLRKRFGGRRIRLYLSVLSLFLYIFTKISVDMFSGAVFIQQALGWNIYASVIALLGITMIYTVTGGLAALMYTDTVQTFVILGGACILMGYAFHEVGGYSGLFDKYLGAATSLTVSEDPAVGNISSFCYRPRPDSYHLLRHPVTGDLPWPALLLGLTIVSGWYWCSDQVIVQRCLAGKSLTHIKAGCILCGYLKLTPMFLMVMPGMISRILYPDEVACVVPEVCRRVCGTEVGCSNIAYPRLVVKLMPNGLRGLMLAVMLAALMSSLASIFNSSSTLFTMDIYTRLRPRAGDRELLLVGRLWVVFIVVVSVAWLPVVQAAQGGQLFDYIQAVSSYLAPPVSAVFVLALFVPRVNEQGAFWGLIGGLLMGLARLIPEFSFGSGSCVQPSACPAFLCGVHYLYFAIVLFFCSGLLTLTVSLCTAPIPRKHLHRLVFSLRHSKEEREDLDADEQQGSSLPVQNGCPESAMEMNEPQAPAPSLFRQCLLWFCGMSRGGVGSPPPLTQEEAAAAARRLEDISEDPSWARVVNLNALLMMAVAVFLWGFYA
Experiment: Inhibition of the transport activity of human SGLT2 in vitro (α-MDG uptake in CHO-TRex-hSGLT2 cells)
Type: cell-based
Conditions: 50 μM α-MDG, 120 min at 37° C.
Excerpt: Inhibition of the Transport Activity of the Human Sodium-Dependent Glucose Transporter 2 (SGLT2, SLC5A2) In Vitro
1. Cloning of an Expression Vector for Human SGLT2
The cDNA for human SGLT2 was introduced into the pcDNA4/TO vector (Invitrogen) by means of standard methods of molecular biology as described in Sambrook et al. (Molecular Cloning, A Laboratory Manual, Second Edition). […] Bases 21 to 2039 correspond to the complete coding region of human SGLT2.
2. Production of a Recombinant Cell Line with Inducible Expression of Human SGLT2
The expression vector for human SGLT2 was introduced into CHO-TREx cells (Invitrogen) by means of FuGene6 lipofection (Roche). To select single cell clones, 600 μg/ml of Zeocin (Invitrogen) was added to the cell culture medium (nutrient mixture F-12 (Ham), (Invitrogen) supplemented with 10% fetal calf serum (FBS Gold, PAA), 10 μg/ml Blasticidin S(CN Biosciences), 100 units/ml penicillin, 100 units/ml streptomycin). The functionality of the single cell clones resulting from the selection was tested via their uptake activity for radiolabeled methyl-α-D-glucopyranoside. That cell clone with the highest uptake activity for methyl-α-D-glucopyranoside, referred to hereinafter as CHO-TRex-hSGLT2, was selected for the further experiments and cultured further in the presence of 600 μg/ml Zeocin.
3. Measurement of the Inhibiting Action of Test Substances on the Uptake of methyl-α-D-glucopyranoside (α-MDG)
CHO-TRex-hSGLT2 cells were seeded in cell culture medium in a concentration of 50 000 cells per well in Cytostar-T scintillating 96-well plates (Amersham Biosciences) and cultivated for 24 h. The expression of the recombinant human SGLT2 was induced by adding 1 μg/ml tetrazykline for a further 24 h. For α-MDG uptake experiments, the cells were washed with PBS and then starved at 37° C. in starvation medium (PBS supplemented with 10% fetal calf serum) for 1 hour. After a further washing step with transport assay buffer (140 mM sodium chloride, 2 mm potassium chloride, 1 mm magnesium chloride, 1 mm calcium chloride, 10 mm HEPES/Tris, pH 7.5), the cells were incubated at room temperature either in the absence or presence of test substances of different concentration for 15 min. The test substances were diluted correspondingly in transport assay buffer proceeding from a 10 mm stock solution in dimethyl sulfoxide (40 μl/well). The assay was subsequently started by adding 10 μl/well of a mixture of radiolabeled methyl-α-D-[U-^14C]glucopyranoside (Amersham) and unlabeled methyl-α-D-glucopyranoside (Acros). The final concentration of methyl-α-D-glucopyranoside in the assay was 50 μM. After an incubation time of 120 min at 37° C., the reaction was stopped by adding 50 μl/well of 10 mM methyl-α-D-glucopyranoside in transport assay buffer (4° C.), and the radioactivity taken up into the cells was determined in a MicroBeta Scintillation Microplate Reader (Wallac).
The half-maximum inhibiting action of the test substances (IC50 value) was determined as follows: • 1. Determination of the value for 0% inhibition. This is the measurement in the absence of substance, measured in sodium-containing transport assay buffer. • 2. Determination of the value for 100% inhibition. This is the measurement in the absence of substance, measured in sodium-free transport assay buffer (140 mM choline chloride, 2 mM potassium chloride, 1 mM magnesium chloride, 1 mM calcium chloride, 10 mM HEPES/Tris, pH7.5). • 3. Calculation of the percentage inhibition values of those measurements which were carried out in the presence of different concentrations of test substance. From this, it was then possible to determine that concentration of the test substance which reduces the uptake of the methyl-α-D-glucopyranoside by 50% (IC50 value).

SMILES	IC50 [nM]
CCc1ccc(Cc2cc(C3OC(CO)C(F)(F)C(O)C3O)ccc2Cl)cc1 (centres unmarked) [Example 1]	12
CCOc1ccc(Cc2cc(C3OC(CO)C(F)(F)C(O)C3O)ccc2Cl)cc1 (centres unmarked) [Example 2]	18
CCc1ccc(Cc2cc(C3OC(CO)C(F)C(O)C3O)ccc2Cl)cc1 (centres unmarked) [Example 3]	8
COc1ccc(Cc2cccc(C3OC(CO)C(F)C(O)C3O)c2)cc1 (centres unmarked) [Example 5]	5
CCc1ccc(Cc2cc(C3OC(CO)C(F)C(O)C3O)ccc2Cl)s1 (centres unmarked) [Example 6]	12
OCC1OC(c2ccc(Cl)c(Cc3cc4ccccc4s3)c2)C(O)C(O)C1F (centres unmarked) [Example 7]	15
CCOC(=O)OCC1OC(c2ccc(F)c(Cc3ccc(OC)cc3)c2)C(O)C(O)C1F (centres unmarked) [Example 8]	1400
COc1ccc(Cc2cc(C3OC(CO)C(F)C(O)C3O)ccc2F)cc1 (centres unmarked) [Example 9]	32
CCOC(=O)OCC1OC(c2ccc(F)c(Cc3ccc(OC)cc3)c2)C(O)C(O)C1(F)F (centres unmarked) [Example 10]	1400
COc1ccc(Cc2cc(C3OC(CO)C(F)(F)C(O)C3O)ccc2F)cc1 (centres unmarked) [Example 11]	54
CCOC(=O)OCC1OC(c2ccc(OC)c(Cc3ccc(OC)cc3)c2)C(O)C(O)C1F (centres unmarked) [Example 12]	2700
COc1ccc(Cc2cc(C3OC(CO)C(F)C(O)C3O)ccc2OC)cc1 (centres unmarked) [Example 13]	31
COc1ccc(Cc2cc(C3OC(CO)C(F)(F)C(O)C3O)ccc2OC)cc1 (centres unmarked) [Example 15]	80
CCOC(=O)OCC1OC(c2ccc(Cl)c(Cc3ccc(OCC)cc3)c2)C(O)C(O)C1F (centres unmarked) [Example 16]	2700
CCOc1ccc(Cc2cc(C3OC(CO)C(F)C(O)C3O)ccc2Cl)cc1 (centres unmarked) [Example 17]	10
CCOC(=O)OCC1OC(c2ccc(Cl)c(Cc3ccc(OCC)cc3)c2)C(O)C(O)C1(F)F (centres unmarked) [Example 18]	897
CCOC(=O)OCC1OC(c2ccc(Cl)c(Cc3ccc(OC)cc3)c2)C(O)C(O)C1(F)F (centres unmarked) [Example 21]	339
COc1ccc(Cc2cc(C3OC(CO)C(F)(F)C(O)C3O)ccc2Cl)cc1 (centres unmarked) [Example 22]	9
CCOC(=O)OCC1OC(c2ccc(Cl)c(Cc3ccc(OC(F)(F)F)cc3)c2)C(O)C(O)C1F (centres unmarked) [Example 24]	976

Second part, the compound after the results:

IC50 [nM]	SMILES
41	OCC1OC(c2ccc(Cl)c(Cc3ccc(OC(F)(F)F)cc3)c2)C(O)C(O)C1F (centres unmarked) [Example 25]
> 10000	CCOC(=O)OCC1OC(c2ccc(Cl)c(Cc3ccc(OC(F)(F)F)cc3)c2)C(O)C(O)C1(F)F (centres unmarked) [Example 26]
199	OCC1OC(c2ccc(Cl)c(Cc3ccc(OC(F)(F)F)cc3)c2)C(O)C(O)C1(F)F (centres unmarked) [Example 27]
15	OC[C@H]1O[C@@H](c2ccc(Cl)c(Cc3ccc(O)cc3)c2)[C@H](O)[C@@H](O)C1(F)F [Example 30]
42	CC(C)Oc1ccc(Cc2cc([C@@H]3O[C@H](CO)C(F)(F)[C@H](O)[C@H]3O)ccc2Cl)cc1 [Example 31]
38	Cc1ccc(C2OC(CO)C(F)(F)C(O)C2O)cc1Cc1ccc(O)cc1 (centres unmarked) [Example 33]
27	COc1ccc(Cc2cc(C3OC(CO)C(F)(F)C(O)C3O)ccc2C)cc1 (centres unmarked) [Example 34]
12600	CCOC(=O)OCC1OC(c2ccc(Cl)c(Cc3ccc(OC)cn3)c2)C(O)C(O)C1F (centres unmarked) [Example 35]
304	COc1ccc(Cc2cc(C3OC(CO)C(F)C(O)C3O)ccc2Cl)nc1 (centres unmarked) [Example 36]
11200	CCOC(=O)OCC1OC(c2ccc(Cl)c(Cc3ccc(OC)cn3)c2)C(O)C(O)C1(F)F (centres unmarked) [Example 37]
393	COc1ccc(Cc2cc(C3OC(CO)C(F)(F)C(O)C3O)ccc2Cl)nc1 (centres unmarked) [Example 38]
19800	CCOC(=O)OC[C@H]1O[C@@H](c2ccc(OC(F)(F)F)c(Cc3ccc(OC)cc3)c2)[C@H](O)[C@@H](O)[C@@H]1F [Example 39]
412	COc1ccc(Cc2cc([C@@H]3O[C@H](CO)[C@@H](F)[C@H](O)[C@H]3O)ccc2OC(F)(F)F)cc1 [Example 40]
12800	CCOC(=O)OC[C@H]1O[C@@H](c2ccc(OC(F)(F)F)c(Cc3ccc(OC)cc3)c2)[C@H](O)[C@@H](O)C1(F)F [Example 41]
982	COc1ccc(Cc2cc([C@@H]3O[C@H](CO)C(F)(F)[C@H](O)[C@H]3O)ccc2OC(F)(F)F)cc1 [Example 42]
24	OC[C@H]1O[C@@H](c2ccc(Cl)c(Cc3ccc(Cl)cc3)c2)[C@H](O)[C@@H](O)[C@@H]1F [Example 44]
75	OC[C@H]1O[C@@H](c2ccc(Cl)c(Cc3ccc(Cl)cc3)c2)[C@H](O)[C@@H](O)C1(F)F [Example 46]
74	COc1ccc(Cc2cc([C@@H]3O[C@H](CO)[C@@H](F)[C@H](O)[C@H]3O)ccc2C(F)(F)F)cc1 [Example 48]
8000	CCOC(=O)OC[C@H]1O[C@@H](c2ccc(C(F)(F)F)c(Cc3ccc(OC)cc3)c2)[C@H](O)[C@@H](O)C1(F)F [Example 49]
154	COc1ccc(Cc2cc([C@@H]3O[C@H](CO)C(F)(F)[C@H](O)[C@H]3O)ccc2C(F)(F)F)cc1 [Example 50]
9.4	COc1ccc(Cc2cc(C3OC(CO)C(F)C(O)C3O)ccc2Br)cc1 (centres unmarked) [Example 56]
10	CCc1ccc(Cc2cc(C3OC(CO)C(F)C(O)C3O)ccc2C)cc1 (centres unmarked) [Example 61]
